Data reported in patent US20230278972A1, “SUBSTITUTED HALOALKYL SULFONANILIDE HERBICIDES” (FMC Corporation, priority 2020, published 2023).

Columns and labels:
Type in all cases: in vivo
[1] = system: barnyardgrass (Echinochloa crus-galli); assay: Test A preemergence, barnyardgrass; settings: Preemergence; for Plant response rating, Barnyardgrass: 0 to 100 scale (0 no effect, 100 complete control); for Barnyardgrass plant response rating: visual injury on 0 to 100 scale (0 no effect, 100 complete control), approximately 10 days
In short: (§1)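 Directed soil spray at planting gave the preemergence treatment, while foliar application to one- to two-leaf seedlings (2–10 cm) gave the postemergence one; pots held a loam and sand mixture and chemicals were carried in a non-phytotoxic solvent with surfactant.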

kochia (Bassia scoparia) [2] = assay: Test A preemergence, kochia; settings: Preemergence; for Plant response rating, Kochia: 0 to 100 scale (0 no effect, 100 complete control); for Kochia plant response rating: visual injury on 0 to 100 scale (0 no effect, 100 complete control), approximately 10 days
In short: as §1

[3] = system: ragweed (common ragweed, Ambrosia artemisiifolia); assay: Test A preemergence, ragweed; settings: Preemergence; for Plant response rating, Ragweed: 0 to 100 scale (0 no effect, 100 complete control); for Ragweed plant response rating: visual injury on 0 to 100 scale (0 no effect, 100 complete control), approximately 10 days
In short: as §1

[4] = system: Ryegrass, Italian (Italian ryegrass, Lolium multiflorum); assay: Test A preemergence, Ryegrass, Italian; settings: Preemergence; for Plant response rating, Ryegrass, Italian: 0 to 100 scale (0 no effect, 100 complete control); for Ryegrass, Italian plant response rating: visual injury on 0 to 100 scale (0 no effect, 100 complete control), approximately 10 days
In short: as §1

[5] = system: Foxtail, Giant (giant foxtail, Setaria faberi); assay: Test A preemergence, Foxtail, Giant; settings: Preemergence; for Plant response rating, Foxtail, Giant: 0 to 100 scale (0 no effect, 100 complete control); for Foxtail, Giant plant response rating: visual injury on 0 to 100 scale (0 no effect, 100 complete control), approximately 10 days
In short: as §1

[6] = system: pigweed (Amaranthus retroflexus); assay: Test A preemergence, pigweed; settings: for Plant response rating, Pigweed: 0 to 100 scale (0 no effect, 100 complete control); for Pigweed plant response rating: visual injury on 0 to 100 scale (0 no effect, 100 complete control), approximately 10 days
In short: (§2)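 Postemergence ratings come from foliar sprays onto one- to two-leaf plants of 2 to 10 cm grown in loam/sand; preemergence ratings come from a directed spray onto the soil of newly seeded pots. Formulation was a surfactant-containing non-phytotoxic solvent blend.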

[7] = system: barnyardgrass (Echinochloa crus-galli); assay: Test A postemergence, barnyardgrass; settings: Postemergence
In short: as §2

kochia (Bassia scoparia) [8] = assay: Test A postemergence, kochia; settings: Postemergence
In short: as §1

[9] = system: ragweed (common ragweed, Ambrosia artemisiifolia); assay: Test A postemergence, ragweed; settings: Postemergence
In short: as §1

[10] = system: Ryegrass, Italian (Italian ryegrass, Lolium multiflorum); assay: Test A postemergence, Ryegrass, Italian; settings: Postemergence
In short: as §1

[11] = system: Foxtail, Giant (giant foxtail, Setaria faberi); assay: Test A postemergence, Foxtail, Giant; settings: Postemergence
In short: as §1

[12] = system: pigweed (Amaranthus retroflexus); assay: Test A postemergence, pigweed; settings: Postemergence
In short: as §1

[13] = system: wheat (Triticum aestivum); assay: Test A postemergence, wheat; settings: Postemergence
In short: as §2

corn (Zea mays) = assay: Test A postemergence, corn; settings: Postemergence
In short: as §1

[14] = system: blackgrass (Alopecurus myosuroides); assay: Test A postemergence, blackgrass; settings: Postemergence
In short: as §1

[15] = system: galium (catchweed bedstraw, Galium aparine); assay: Test A postemergence, galium; settings: Postemergence
In short: as §2

[16] = 125 g ai/ha, visual injury, approx. 10 days
[17] = 125 g ai/ha, 0 to 100 scale (0 no effect, 100 complete control)
[18] = 500 g ai/ha, visual injury vs untreated controls after approx. 10 days, 0 to 100 scale (0 no effect, 100 complete control)
[19] = 31 g ai/ha, visual injury, approx. 10 days
[20] = 31 g ai/ha, visual injury on 0 to 100 scale (0 no effect, 100 complete control), approx. 10 days
[21] = 31 g ai/ha, 0 to 100 scale (0 no effect, 100 complete control)
[22] = 125 g ai/ha, visual injury approx. 10 days, 0 to 100 scale (0 no effect, 100 complete control)

## CC(=O)OCN(c1cc(C2=NOC3(CCCC3)C2)c(C)cc1C)S(=O)(=O)C(F)(F)F [Compound 218]
[1]; [16]
  Plant response rating, Barnyardgrass: 100
[1]; 500 g ai/ha
  Plant response rating, Barnyardgrass: 100
Kochia (Bassia scoparia) [2]; [16]
  Plant response rating, Kochia: 30
Kochia (Bassia scoparia) [2]; 500 g ai/ha
  Plant response rating, Kochia: 60
[3]; [16]
  Plant response rating, Ragweed: 20
[3]; 500 g ai/ha
  Plant response rating, Ragweed: 90
[4]; [16]
  Plant response rating, Ryegrass, Italian: 100
[4]; 500 g ai/ha
  Plant response rating, Ryegrass, Italian: 100
[5]; [16]
  Plant response rating, Foxtail, Giant: 100
[5]; 500 g ai/ha
  Plant response rating, Foxtail, Giant: 100
[6]; [16]
  Plant response rating, Pigweed: 80
[6]; 500 g ai/ha
  Plant response rating, Pigweed: 90
[7]; [17]
  Plant response rating, Barnyardgrass: 80
[7]; [18]
  Barnyardgrass plant response rating: 90
Kochia (Bassia scoparia) [8]; [17]
  Plant response rating, Kochia: 60
Kochia (Bassia scoparia) [8]; [18]
  Kochia plant response rating: 80
[9]; [17]
  Plant response rating, Ragweed: 40
[9]; [18]
  Ragweed plant response rating: 80
[10]; [17]
  Plant response rating, Ryegrass, Italian: 30
[10]; [18]
  Ryegrass, Italian plant response rating: 80
[11]; [17]
  Plant response rating, Foxtail, Giant: 50
[11]; [18]
  Foxtail, Giant plant response rating: 90
[12]; [17]
  Plant response rating, Pigweed: 50
[12]; [18]
  Pigweed plant response rating: 80
[13]; [17]
  Plant response rating, Wheat: 10
[13]; [18]
  Wheat plant response rating: 70
Corn (Zea mays); [17]
  Plant response rating, Corn: 10
Corn (Zea mays); [18]
  Corn plant response rating: 70
[14]; [17]
  Plant response rating, Blackgrass: 10
[14]; [18]
  Blackgrass plant response rating: 40
[15]; [17]
  Plant response rating, Galium: 60
[15]; [18]
  Galium plant response rating: 80

## Cc1cc(C)c(N(COC(=O)CC(C)C)S(=O)(=O)C(F)(F)F)cc1C1=NOC2(CCCC2)C1 [Compound 152]
[1]; [19]
  Plant response rating, Barnyardgrass: 0
[1]; 125 g ai/ha
  Barnyardgrass plant response rating: 70
Kochia (Bassia scoparia) [2]; [19]
  Plant response rating, Kochia: 0
Kochia (Bassia scoparia) [2]; 125 g ai/ha
  Kochia plant response rating: 0
[3]; [19]
  Plant response rating, Ragweed: 0
[3]; 125 g ai/ha
  Ragweed plant response rating: 30
[4]; [19]
  Plant response rating, Ryegrass, Italian: 0
[4]; 125 g ai/ha
  Ryegrass, Italian plant response rating: 40
[5]; [19]
  Plant response rating, Foxtail, Giant: 40
[5]; 125 g ai/ha
  Foxtail, Giant plant response rating: 80
[6]; [19]
  Plant response rating, Pigweed: 30
[6]; 125 g ai/ha
  Pigweed plant response rating: 100
[7]; [20]
  Plant response rating, Barnyardgrass: 0
[7]; [17]
  Plant response rating, Barnyardgrass: 10
Kochia (Bassia scoparia) [8]; [20]
  Plant response rating, Kochia: 10
Kochia (Bassia scoparia) [8]; [17]
  Plant response rating, Kochia: 10
[9]; [20]
  Plant response rating, Ragweed: 0
[9]; [17]
  Plant response rating, Ragweed: 40
[10]; [20]
  Plant response rating, Ryegrass, Italian: 0
[10]; [17]
  Plant response rating, Ryegrass, Italian: 0
[11]; [20]
  Plant response rating, Foxtail, Giant: 10
[11]; [17]
  Plant response rating, Foxtail, Giant: 10
[12]; [20]
  Plant response rating, Pigweed: 30
[12]; [17]
  Plant response rating, Pigweed: 60
[13]; [20]
  Plant response rating, Wheat: 40
[13]; [17]
  Plant response rating, Wheat: 30
Corn (Zea mays); [20]
  Plant response rating, Corn: 10
Corn (Zea mays); [17]
  Plant response rating, Corn: 0
[14]; [20]
  Plant response rating, Blackgrass: 0
[14]; [17]
  Plant response rating, Blackgrass: 0
[15]; [20]
  Plant response rating, Galium: 20
[15]; [17]
  Plant response rating, Galium: 60

## CO[C@@H]1CCCN(C(=O)c2cc(NS(=O)(=O)C(F)(F)F)c(C)cc2C)C1 [Compound 94]
[1]; [19]
  Plant response rating, Barnyardgrass: 10
[1]; 125 g ai/ha
  Barnyardgrass plant response rating: 90
Kochia (Bassia scoparia) [2]; [19]
  Plant response rating, Kochia: 0
Kochia (Bassia scoparia) [2]; 125 g ai/ha
  Kochia plant response rating: 60
[3]; [19]
  Plant response rating, Ragweed: 0
[3]; 125 g ai/ha
  Ragweed plant response rating: 30
[4]; [19]
  Plant response rating, Ryegrass, Italian: 30
[4]; 125 g ai/ha
  Ryegrass, Italian plant response rating: 90
[5]; [19]
  Plant response rating, Foxtail, Giant: 50
[5]; 125 g ai/ha
  Foxtail, Giant plant response rating: 100
[6]; [19]
  Plant response rating, Pigweed: 100
[6]; 125 g ai/ha
  Pigweed plant response rating: 100
[7]; [21]
  Plant response rating, Barnyardgrass: 20
[7]; [22]
  Plant response rating, Barnyardgrass: 60
Kochia (Bassia scoparia) [8]; [21]
  Plant response rating, Kochia: 10
Kochia (Bassia scoparia) [8]; [22]
  Plant response rating, Kochia: 50
[9]; [21]
  Plant response rating, Ragweed: 10
[9]; [22]
  Plant response rating, Ragweed: 40
[10]; [21]
  Plant response rating, Ryegrass, Italian: 20
[10]; [22]
  Plant response rating, Ryegrass, Italian: 50
[11]; [21]
  Plant response rating, Foxtail, Giant: 0
[11]; [22]
  Plant response rating, Foxtail, Giant: 30
[12]; [21]
  Plant response rating, Pigweed: 50
[12]; [22]
  Plant response rating, Pigweed: 80
[13]; [21]
  Plant response rating, Wheat: 10
[13]; [22]
  Plant response rating, Wheat: 50
Corn (Zea mays); [21]
  Plant response rating, Corn: 0
Corn (Zea mays); [22]
  Plant response rating, Corn: 20
[14]; [21]
  Plant response rating, Blackgrass: 0
[14]; [22]
  Plant response rating, Blackgrass: 20
[15]; [21]
  Plant response rating, Galium: 70
[15]; [22]
  Plant response rating, Galium: 90

## CSc1cc(-c2cc(NS(=O)(=O)C(F)(F)F)c(C)cc2C)c(=O)n(C)n1 [Compound 36]
[1]; [19]
  Plant response rating, Barnyardgrass: 0
[1]; 125 g ai/ha
  Barnyardgrass plant response rating: 50
Kochia (Bassia scoparia) [2]; [19]
  Plant response rating, Kochia: 0
Kochia (Bassia scoparia) [2]; 125 g ai/ha
  Kochia plant response rating: 0
[3]; [19]
  Plant response rating, Ragweed: 0
[3]; 125 g ai/ha
  Ragweed plant response rating: 0
[4]; [19]
  Plant response rating, Ryegrass, Italian: 0
[4]; 125 g ai/ha
  Ryegrass, Italian plant response rating: 60
[5]; [19]
  Plant response rating, Foxtail, Giant: 20
[5]; 125 g ai/ha
  Foxtail, Giant plant response rating: 80
[6]; [19]
  Plant response rating, Pigweed: 0
[6]; 125 g ai/ha
  Pigweed plant response rating: 10
[7]; [21]
  Plant response rating, Barnyardgrass: 0
[7]; [22]
  Plant response rating, Barnyardgrass: 0
Kochia (Bassia scoparia) [8]; [21]
  Plant response rating, Kochia: 10
Kochia (Bassia scoparia) [8]; [22]
  Plant response rating, Kochia: 20
[9]; [21]
  Plant response rating, Ragweed: 0
[9]; [22]
  Plant response rating, Ragweed: 0
[10]; [21]
  Plant response rating, Ryegrass, Italian: 20
[10]; [22]
  Plant response rating, Ryegrass, Italian: 10
[11]; [21]
  Plant response rating, Foxtail, Giant: 0
[11]; [22]
  Plant response rating, Foxtail, Giant: 0
[12]; [21]
  Plant response rating, Pigweed: 0
[12]; [22]
  Plant response rating, Pigweed: 30
[13]; [21]
  Plant response rating, Wheat: 0
[13]; [22]
  Plant response rating, Wheat: 50
Corn (Zea mays); [21]
  Plant response rating, Corn: 0
Corn (Zea mays); [22]
  Plant response rating, Corn: 0
[14]; [21]
  Plant response rating, Blackgrass: 0
[14]; [22]
  Plant response rating, Blackgrass: 0
[15]; [21]
  Plant response rating, Galium: 20
[15]; [22]
  Plant response rating, Galium: 40
